These results are taken from PubChem BioAssay AID1259407 (Chemical Carcinogenesis Research Information System (CCRIS), 2018).

Activity calls are given as the source filed them. No rule for the calls is given here.

The series relates to CCRIS mutagenicity, Ames/micronucleus/aberration tests. Description: CCRIS mutagenicity studies.
Where [1] appears, read: Test System: AMES SALMONELLA TYPHIMURIUM, Strain/Indicator: TA98, Metabolic Activation: NONE, Method: PREINCUBATION

With `CN(C)c1ccc(/C=C/c2ccccc2)cc1`, the mutagenic call is, setting by setting: (Test System: AMES SALMONELLA TYPHIMURIUM, Strain/Indicator: TA98, Metabolic Activation: HAMSTER, LIVER, S-9, AROCLOR 1254, Method: STANDARD PLATE) “active; positive”; (Test System: AMES SALMONELLA TYPHIMURIUM, Strain/Indicator: TA98, Metabolic Activation: HAMSTER, LIVER, S-9, Method: PREINCUBATION (PRIVAL METHOD)) “active; positive”; (Test System: AMES SALMONELLA TYPHIMURIUM, Strain/Indicator: TA98, Metabolic Activation: RAT, LIVER, S-9, AROCLOR 1254, HAMSTER, LIVER, S-9, AROCLOR 1254, Method: STANDARD PLATE) “active; positive”; (Test System: AMES SALMONELLA TYPHIMURIUM, Strain/Indicator: TA98, Metabolic Activation: RAT, LIVER, S-9, KC500 OR PHENOBARBITAL, Method: LIQUID SUSPENSION) “active; positive”; (Test System: AMES SALMONELLA TYPHIMURIUM, Strain/Indicator: TA100, Metabolic Activation: HAMSTER, LIVER, S-9, AROCLOR 1254 (10%), Method: STANDARD PLATE) “active; positive”; (Test System: AMES SALMONELLA TYPHIMURIUM, Strain/Indicator: TA100, Metabolic Activation: HAMSTER, LIVER, S-9, Method: PREINCUBATION (PRIVAL METHOD)) “active; positive”. Besides, the mutagenic call was “active; positive” (Test System: AMES SALMONELLA TYPHIMURIUM, Strain/Indicator: TA100, Metabolic Activation: RAT, LIVER, S-9, AROCLOR 1254, HAMSTER, LIVER, S-9, AROCLOR 1254, Method: STANDARD PLATE); “active; positive” (Test System: AMES SALMONELLA TYPHIMURIUM, Strain/Indicator: TA100, Metabolic Activation: RAT, LIVER, S-9, KC500 OR PHENOBARBITAL, Method: LIQUID SUSPENSION); “active; positive” (Test System: AMES SALMONELLA TYPHIMURIUM, Strain/Indicator: TA100, Metabolic Activation: RAT, LIVER, S-9, PHENOBARBITAL, Method: STANDARD PLATE); “active; positive” (Test System: AMES SALMONELLA TYPHIMURIUM, Strain/Indicator: TA1538, Metabolic Activation: RAT, LIVER, S-9, AROCLOR 1254, HAMSTER, LIVER, S-9, AROCLOR 1254, Method: STANDARD PLATE); “active; positive” (Test System: AMES SALMONELLA TYPHIMURIUM, Strain/Indicator: TA1538, Metabolic Activation: RAT, LIVER, S-9, PHENOBARBITAL, Method: STANDARD PLATE); “inactive; inconclusive (pevious evaluation negative)” (Test System: Mouse lymphoma, Strain/Indicator: L5178Y (tk+/tk-), Metabolic Activation: None, Method: Suspension/plate). Under “Test System: Mouse lymphoma, Strain/Indicator: L5178Y (tk+/tk-), Metabolic Activation: Rat, Liver, S-9, Aroclor 1254, Method: Suspension/plate”, the mutagenic call is “active; positive”.

As to `NC(=O)/C=C/c1ccc([N+](=O)[O-])o1`, the mutagenic call was “active; positive” under setting [1] and “active; positive” (Test System: UDS HUMAN FIBROBLASTS, Strain/Indicator: THY INCORP (NON-S-PHASE), Metabolic Activation: NONE, Method: AUTORADIOGRAPHY).

As to `CCCCCNc1snc2ccccc12`, the mutagenic call is “inactive; negative” (Test System: AMES SALMONELLA TYPHIMURIUM, Strain/Indicator: TA98, Metabolic Activation: NONE, Method: STANDARD PLATE); “inactive; negative” (Test System: AMES SALMONELLA TYPHIMURIUM, Strain/Indicator: TA98, Metabolic Activation: S-9, Method: STANDARD PLATE); “inactive; negative” (Test System: AMES SALMONELLA TYPHIMURIUM, Strain/Indicator: TA100, Metabolic Activation: NONE, Method: STANDARD PLATE); “inactive; negative” (Test System: AMES SALMONELLA TYPHIMURIUM, Strain/Indicator: TA100, Metabolic Activation: S-9, Method: STANDARD PLATE); “inactive; negative” (Test System: AMES SALMONELLA TYPHIMURIUM, Strain/Indicator: TA1535, Metabolic Activation: NONE, Method: STANDARD PLATE); “inactive; negative” (Test System: AMES SALMONELLA TYPHIMURIUM, Strain/Indicator: TA1535, Metabolic Activation: S-9, Method: STANDARD PLATE). In addition, the mutagenic call runs as follows: (Test System: AMES SALMONELLA TYPHIMURIUM, Strain/Indicator: TA1537, Metabolic Activation: NONE, Method: STANDARD PLATE) “inactive; negative”; (Test System: AMES SALMONELLA TYPHIMURIUM, Strain/Indicator: TA1537, Metabolic Activation: S-9, Method: STANDARD PLATE) “inactive; negative”.

Consider `[O]=[Cd]`, for which the mutagenic call runs as follows: (End Point: In vivo micronucleus, Test System: Peripheral blood lymphocytes, Species: Dog, Strain/Sex: Mongrel/Male, Female, Route: Oral) “active; positive in group 2”; (Test System: AMES SALMONELLA TYPHIMURIUM, Strain/Indicator: TA98, Metabolic Activation: HAMSTER, LIVER, S-9, AROCLOR 1254 (10%), Method: PREINCUBATION) “inactive; negative”; under setting [1], “inactive; negative”; (Test System: AMES SALMONELLA TYPHIMURIUM, Strain/Indicator: TA98, Metabolic Activation: RAT, LIVER, S-9, AROCLOR 1254 (10%), Method: PREINCUBATION) “inactive; negative”; (Test System: AMES SALMONELLA TYPHIMURIUM, Strain/Indicator: TA100, Metabolic Activation: HAMSTER, LIVER, S-9, AROCLOR 1254 (10%), Method: PREINCUBATION) “inactive; negative”; (Test System: AMES SALMONELLA TYPHIMURIUM, Strain/Indicator: TA100, Metabolic Activation: NONE, Method: PREINCUBATION) “inactive; negative”. For the same compound, the mutagenic call runs as follows: (Test System: AMES SALMONELLA TYPHIMURIUM, Strain/Indicator: TA100, Metabolic Activation: RAT, LIVER, S-9, AROCLOR 1254 (10%), Method: PREINCUBATION) “inactive; negative”; (Test System: AMES SALMONELLA TYPHIMURIUM, Strain/Indicator: TA1535, Metabolic Activation: HAMSTER, LIVER, S-9, AROCLOR 1254 (10%), Method: PREINCUBATION) “inactive; negative”; (Test System: AMES SALMONELLA TYPHIMURIUM, Strain/Indicator: TA1535, Metabolic Activation: NONE, Method: PREINCUBATION) “inactive; negative”; (Test System: AMES SALMONELLA TYPHIMURIUM, Strain/Indicator: TA1535, Metabolic Activation: RAT, LIVER, S-9, AROCLOR 1254 (10%), Method: PREINCUBATION) “inactive; negative”; (Test System: AMES SALMONELLA TYPHIMURIUM, Strain/Indicator: TA1537, Metabolic Activation: HAMSTER, LIVER, S-9, AROCLOR 1254 (10%), Method: PREINCUBATION) “inactive; negative”; (Test System: AMES SALMONELLA TYPHIMURIUM, Strain/Indicator: TA1537, Metabolic Activation: NONE, Method: PREINCUBATION) “inactive; negative”. The mutagenic call (Test System: AMES SALMONELLA TYPHIMURIUM, Strain/Indicator: TA1537, Metabolic Activation: RAT, LIVER, S-9, AROCLOR 1254 (10%), Method: PREINCUBATION) is “inactive; negative”.

In the case of `Cc1nc2c(C)cc3c(nc(N)n3C)c2nc1C`, the mutagenic call (Test System: AMES SALMONELLA TYPHIMURIUM, Strain/Indicator: TA98, Metabolic Activation: RAT, LIVER, S-9, AROCLOR 1254, Method: STANDARD PLATE) is “active; positive”.
